Columns and labels:
[1] = The drug is tested on Proteus penneri strain: ATCC35198 for biotransformation. The drug concentrations were measured before and after a 12-h incubation by liquid-chromatography-coupled mass spectrometry (LC–MS); details: 2 µM
[2] = The drug is tested on Bacteroides fragilis strain: T(B)9 for biotransformation. The drug concentrations were measured before and after a 12-h incubation by liquid-chromatography-coupled mass spectrometry (LC–MS); details: 2 µM
[3] = The drug is tested on Providencia alcalifaciens strain: DSM30120 for biotransformation. The drug concentrations were measured before and after a 12-h incubation by liquid-chromatography-coupled mass spectrometry (LC–MS); details: 2 µM
[4] = The drug is tested on Salmonella typhimurium strain: LT2 for biotransformation. The drug concentrations were measured before and after a 12-h incubation by liquid-chromatography-coupled mass spectrometry (LC–MS); details: salmonella enterica subsp. enterica, 2 µM
[5] = The drug is tested on Eubacterium biforme strain: DSM3989 for biotransformation. The drug concentrations were measured before and after a 12-h incubation by liquid-chromatography-coupled mass spectrometry (LC–MS); details: holdemanella biformis, 2 µM
Lipoprotein = target: T1, Lipoprotein (Bacteroides thetaiotaomicron, UniProt Q8A343); experiment: (§1) The drug is tested on Bacteroides thetaiotaomicron strain: VPI-5482 for biotransformation. The drug concentrations were measured before and after a 12-h incubation by liquid-chromatography-coupled mass spectrometry (LC–MS); type: ADME; set-up: dose 2 uM; details: 2 µM
T1 sequence (Q8A343 whole entry): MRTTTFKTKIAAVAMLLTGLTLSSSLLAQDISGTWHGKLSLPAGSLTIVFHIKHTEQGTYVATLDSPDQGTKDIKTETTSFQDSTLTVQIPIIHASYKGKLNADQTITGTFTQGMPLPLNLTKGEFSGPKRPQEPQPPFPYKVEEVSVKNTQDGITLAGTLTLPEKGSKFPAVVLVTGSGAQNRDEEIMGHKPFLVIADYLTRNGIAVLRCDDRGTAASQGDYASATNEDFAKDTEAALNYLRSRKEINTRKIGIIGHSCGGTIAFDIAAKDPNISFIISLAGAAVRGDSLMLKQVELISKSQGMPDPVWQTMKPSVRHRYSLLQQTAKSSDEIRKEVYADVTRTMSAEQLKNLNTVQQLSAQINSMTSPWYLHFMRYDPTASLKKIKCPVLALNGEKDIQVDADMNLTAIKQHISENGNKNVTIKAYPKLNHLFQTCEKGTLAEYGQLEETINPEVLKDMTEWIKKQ

Endoglucanase E (EGE) = target: T2, Endoglucanase E (EGE) (Bacteroides thetaiotaomicron, UniProt Q8AAL9); experiment: as §1; type: ADME; set-up: dose 2 uM; details: 2 µM
T2 sequence (Q8AAL9 whole entry): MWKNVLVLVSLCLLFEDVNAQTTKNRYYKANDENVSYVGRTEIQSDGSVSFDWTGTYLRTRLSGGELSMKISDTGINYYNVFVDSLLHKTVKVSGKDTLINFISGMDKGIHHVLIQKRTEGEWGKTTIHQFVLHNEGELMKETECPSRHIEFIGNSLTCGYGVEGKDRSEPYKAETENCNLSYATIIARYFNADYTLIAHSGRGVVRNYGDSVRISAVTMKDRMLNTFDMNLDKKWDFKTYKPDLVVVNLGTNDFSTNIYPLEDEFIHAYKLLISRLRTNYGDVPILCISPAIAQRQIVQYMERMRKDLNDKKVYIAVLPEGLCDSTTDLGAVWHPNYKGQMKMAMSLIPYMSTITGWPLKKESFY

Flavodoxin = target: T3, Flavodoxin (Collinsella aerofaciens, UniProt A4ED08); experiment: (§2) The drug is tested on Collinsella aerofaciens strain: ATCC25986 for biotransformation. The drug concentrations were measured before and after a 12-h incubation by liquid-chromatography-coupled mass spectrometry (LC–MS); type: ADME; set-up: dose 2 uM; details: 2 µM
T3 sequence (A4ED08 whole entry): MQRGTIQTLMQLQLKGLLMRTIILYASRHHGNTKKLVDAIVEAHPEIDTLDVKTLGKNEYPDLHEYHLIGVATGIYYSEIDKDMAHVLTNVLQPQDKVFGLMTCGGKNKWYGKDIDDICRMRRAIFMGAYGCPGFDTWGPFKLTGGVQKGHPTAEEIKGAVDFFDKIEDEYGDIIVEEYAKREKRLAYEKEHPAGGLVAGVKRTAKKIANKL

Diguanylate cyclase = target: T4, Diguanylate cyclase (Collinsella aerofaciens, UniProt A4EB91); experiment: as §2; type: ADME; set-up: dose 2 uM; details: 2 µM
T4 sequence (A4EB91 whole entry): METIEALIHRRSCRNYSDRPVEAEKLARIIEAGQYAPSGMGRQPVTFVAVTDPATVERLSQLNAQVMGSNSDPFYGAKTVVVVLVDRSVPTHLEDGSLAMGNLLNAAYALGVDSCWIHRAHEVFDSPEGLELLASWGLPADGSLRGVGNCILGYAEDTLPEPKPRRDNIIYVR

[6] = target: T5, Pyridine nucleotide-disulfide oxidoreductase (Collinsella aerofaciens, UniProt A4EBM5); experiment: as §2; type: ADME; set-up: dose 2 uM; details: 2 µM
T5 sequence (A4EBM5 whole entry): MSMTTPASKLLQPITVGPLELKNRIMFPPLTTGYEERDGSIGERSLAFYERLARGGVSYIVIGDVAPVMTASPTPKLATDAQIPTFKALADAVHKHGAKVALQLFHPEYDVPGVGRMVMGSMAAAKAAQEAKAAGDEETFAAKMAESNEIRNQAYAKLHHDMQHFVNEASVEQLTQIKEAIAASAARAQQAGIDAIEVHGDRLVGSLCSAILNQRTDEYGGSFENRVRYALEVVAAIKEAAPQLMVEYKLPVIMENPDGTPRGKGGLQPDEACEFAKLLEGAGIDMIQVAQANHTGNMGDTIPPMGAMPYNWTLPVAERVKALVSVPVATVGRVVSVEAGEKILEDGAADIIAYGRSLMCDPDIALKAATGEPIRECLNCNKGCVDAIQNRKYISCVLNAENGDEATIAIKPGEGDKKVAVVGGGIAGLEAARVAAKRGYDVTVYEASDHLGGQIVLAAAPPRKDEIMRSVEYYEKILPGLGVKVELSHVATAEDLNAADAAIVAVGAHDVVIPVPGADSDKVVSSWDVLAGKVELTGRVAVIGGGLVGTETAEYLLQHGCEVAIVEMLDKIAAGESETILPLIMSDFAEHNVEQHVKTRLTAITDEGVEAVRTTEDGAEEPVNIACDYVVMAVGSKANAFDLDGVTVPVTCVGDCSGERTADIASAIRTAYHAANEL

GDSL-like protein = target: T6, GDSL-like protein (Collinsella aerofaciens, UniProt A4E7D0); experiment: as §2; type: ADME; set-up: dose 2 uM; details: 2 µM
T6 sequence (A4E7D0 whole entry): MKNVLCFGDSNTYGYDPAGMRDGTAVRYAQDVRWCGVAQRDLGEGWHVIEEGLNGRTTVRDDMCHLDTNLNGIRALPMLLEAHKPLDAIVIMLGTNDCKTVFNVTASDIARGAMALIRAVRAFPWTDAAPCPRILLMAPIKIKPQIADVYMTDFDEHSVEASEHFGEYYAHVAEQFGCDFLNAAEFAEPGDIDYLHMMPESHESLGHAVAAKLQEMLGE

Row | Bacterial Biotransformation [1] | Bacterial Biotransformation [2] | Bacterial Biotransformation [3] | Bacterial Biotransformation [4] | Bacterial Biotransformation [5] | Bacterial Biotransformation (Lipoprotein) | Bacterial Biotransformation (Endoglucanase E (EGE)) | Bacterial Biotransformation (Flavodoxin) | Bacterial Biotransformation (Diguanylate cyclase) | Bacterial Biotransformation [6] | Bacterial Biotransformation (GDSL-like protein) | SMILES
1 | Compound metabolized | Compound metabolized |  |  | Compound NOT metabolized |  |  |  |  |  |  | c1ccc([C@H]2CN3CCSC3=N2)cc1 [LEVAMISOLE]
2 |  |  |  |  |  | Compound NOT metabolized | Compound NOT metabolized | Compound NOT metabolized | Compound NOT metabolized | Compound NOT metabolized |  | O=C(O)c1cc(/N=N/c2ccc(S(=O)(=O)Nc3ccccn3)cc2)ccc1O [SULFASALAZINE]
3 |  |  |  |  |  | Compound NOT metabolized | Compound NOT metabolized | Compound metabolized | Compound NOT metabolized | Compound NOT metabolized | Compound NOT metabolized | Nc1ccc(/N=N/c2ccccc2)c(N)n1 [PHENAZOPYRIDINE]
4 | Compound NOT metabolized | Compound metabolized | Compound NOT metabolized | Compound metabolized | Compound metabolized |  |  |  |  |  |  | O=C(O)COCCN1CCN(C(c2ccccc2)c2ccc(Cl)cc2)CC1 (configuration not stated) [CETIRIZINE]
5 | Compound NOT metabolized | Compound NOT metabolized | Compound NOT metabolized |  | Compound NOT metabolized |  |  |  |  |  |  | CN(C)CCC=C1c2ccccc2C=Cc2ccccc21 [CYCLOBENZAPRINE]
6 | Compound NOT metabolized | Compound metabolized | Compound NOT metabolized | Compound NOT metabolized | Compound NOT metabolized |  |  |  |  |  |  | Clc1cccc(Cl)c1N=C1NCCN1 [CLONIDINE]
7 |  |  |  | Compound NOT metabolized |  |  |  |  |  |  |  | C=CCc1ccccc1OCC(O)CNC(C)C (configuration not stated) [ALPRENOLOL]

The next lines start with the compound.

Row | SMILES | Bacterial Biotransformation [1] | Bacterial Biotransformation [2] | Bacterial Biotransformation [3] | Bacterial Biotransformation [4] | Bacterial Biotransformation [5] | Bacterial Biotransformation (Lipoprotein) | Bacterial Biotransformation (Endoglucanase E (EGE)) | Bacterial Biotransformation (Flavodoxin) | Bacterial Biotransformation (Diguanylate cyclase) | Bacterial Biotransformation [6] | Bacterial Biotransformation (GDSL-like protein)
8 | CC(C)NCC(O)COc1ccc(CCOCC2CC2)cc1 (configuration not stated) [BETAXOLOL] | Compound NOT metabolized | Compound NOT metabolized | Compound NOT metabolized |  |  |  |  |  |  |  | 
9 | CC(C)NCC(O)COc1ccc(CC(N)=O)cc1 (configuration not stated) [ATENOLOL] | Compound NOT metabolized |  | Compound NOT metabolized | Compound NOT metabolized |  |  |  |  |  |  | 
10 | CCCC(=O)Nc1ccc(OCC(O)CNC(C)C)c(C(C)=O)c1 (configuration not stated) [ACEBUTOLOL] |  |  |  | Compound NOT metabolized |  |  |  |  |  |  | 
11 | CCOC(=O)C1=C(C)NC(C)=C(C(=O)OC)C1c1cccc([N+](=O)[O-])c1 (configuration not stated) [NITRENDIPINE] |  |  |  |  |  |  |  | Compound NOT metabolized | Compound metabolized | Compound NOT metabolized | Compound NOT metabolized
12 | COc1ccnc(C[S+]([O-])c2nc3ccc(OC(F)F)cc3[nH]2)c1OC (configuration not stated) [PANTOPRAZOLE] |  |  |  |  |  | Compound NOT metabolized | Compound NOT metabolized | Compound NOT metabolized | Compound NOT metabolized | Compound NOT metabolized | Compound NOT metabolized
13 | CCN(CC)C(=O)/C(C#N)=C/c1cc(O)c(O)c([N+](=O)[O-])c1 [ENTACAPONE] |  |  |  |  |  | Compound NOT metabolized | Compound NOT metabolized | Compound NOT metabolized | Compound metabolized | Compound NOT metabolized | Compound NOT metabolized
14 | CCS(=O)(=O)CCn1c([N+](=O)[O-])cnc1C [TINIDAZOLE] |  |  |  |  |  | Compound NOT metabolized | Compound NOT metabolized | Compound NOT metabolized |  | Compound metabolized | Compound NOT metabolized
15 | O=P1(N(CCCl)CCCl)NCCCO1 (configuration not stated) [CYCLOPHOSPHAMIDE ANHYDROUS] | Compound NOT metabolized | Compound NOT metabolized | Compound NOT metabolized | Compound NOT metabolized | Compound metabolized |  |  |  |  |  | 
16 | C#C[C@]1(O)CC[C@H]2[C@@H]3CCC4=Cc5oncc5C[C@]4(C)[C@H]3CC[C@@]21C [DANAZOL] |  |  |  |  |  | Compound NOT metabolized | Compound NOT metabolized | Compound NOT metabolized | Compound NOT metabolized | Compound NOT metabolized | Compound NOT metabolized
17 | CC(=O)OCC(=O)NCCCOc1cccc(CN2CCCCC2)c1 [ROXATIDINE ACETATE] |  |  |  |  |  | Compound NOT metabolized | Compound NOT metabolized | Compound NOT metabolized | Compound NOT metabolized | Compound NOT metabolized | Compound NOT metabolized
18 | CC(=O)OCC(=O)[C@@]12N=C(C)O[C@@H]1C[C@H]1[C@@H]3CCC4=CC(=O)C=C[C@]4(C)[C@H]3[C@@H](O)C[C@@]12C [DEFLAZACORT] |  |  |  |  |  | Compound NOT metabolized | Compound NOT metabolized | Compound NOT metabolized | Compound NOT metabolized | Compound NOT metabolized | Compound NOT metabolized
19 | COC(=O)[C@H](c1ccccc1Cl)N1CCc2sccc2C1.O=S(=O)(O)O [CLOPIDOGREL BISULFATE] | Compound NOT metabolized | Compound metabolized | Compound NOT metabolized | Compound NOT metabolized | Compound NOT metabolized |  |  |  |  |  | 
20 | CN1CCN(C2=Nc3cc(Cl)ccc3Nc3ccccc32)CC1 [CLOZAPINE] | Compound NOT metabolized |  |  | Compound NOT metabolized | Compound NOT metabolized |  |  |  |  |  | 
21 | CN/C(=N/CCSCc1nc[nH]c1C)NC#N [CIMETIDINE] | Compound NOT metabolized | Compound metabolized | Compound NOT metabolized | Compound NOT metabolized |  |  |  |  |  |  | 

— ChEMBL document CHEMBL5303573, “Mapping human microbiome drug metabolism by gut bacteria and their genes” (Nature, 2019)
